{"source": "paper PMC10725991", "about": "“Kaempferol is a novel antiviral agent against channel catfish virus infection through blocking viral attachment and penetration in vitro” (Frontiers in Veterinary Science, 2023)", "key": {"[1]": {"system": "CCV in CCO cells", "experiment": "Liquid plaque assay", "type": "cell-based, Channel catfish virus (CCV", "conditions": "Ictalurid herpesvirus 1; kaempferol 10 μg/mL, 36 h; read-out: inhibition of viral plaque formation", "method": "For analyzing the CPE reduction of viral infected CCO cells by kaempferol, the CCO cells were seeded in 24-well plates and cultured overnight at 28°C before infection. Then, the monolayer cells were infected with CCV at 10^3 TCID50/ml for 1 h. Subsequently, the infected cells were treated with kaempferol at different concentrations (2.5, 5, 7.5, 10, 12.5, and 15 μg/mL), respectively. The CCO cells without CCV and drug treatment were set as mock control whereas the virus-infected cells without compound treatment were set as CCV control. Each sample was directly observed and photographed under an inverted microscope at 24 and 36 h post-infection. Meanwhile, the plaque assay was performed as described in previous studies with slight modifications ([34]). Briefly, confluent cells in 24-well plates were infected with CCV (10^3 TCID50/ml) for 1 h. Subsequently, the inoculums were removed and the kaempferol with different concentrations (2.5, 5, 7.5, 10, 12.5, and 15 μg/mL) was added and remained throughout the experiment. The cells were fixed and stained with 1% crystal violet and then photographed at 36 h post-infection.\nFigure 4 CPE and plaque reduction in CCO cells treated with kaempferol. (A) The cells were incubated with different concentrations of kaempferol (2.5, 5.0, 7.5, 10, 12.5 and 15.0 μg/mL) after CCV infection 1 h. […]"}, "[2]": {"system": "CCV ORF 39 and ORF 59 proteins in CCO cells", "experiment": "Western blot of CCV ORF 39 and ORF 59 proteins", "type": "cell-based, Channel catfish virus (CCV, Ictalurid herpesvirus 1)", "method": "To test the anti-CCV effect of tested compounds in the preliminary screening, CCO cells were seeded in 24-well plates and cultured to reach approximately 90% confluence in each well at 28°C. Subsequently, the cells were infected with the CCV at 10^3 TCID50/ml at 28°C for 1 h. After that, the cell culture medium was replaced using an isopycnic DMEM medium containing the maximum safe concentration of indicated compounds. CCV-infected cells treated with DMSO served as a negative control, whereas CCV-infected cells treated with acyclovir (2.5 μg/mL) served as a positive control ([33]). After 36 h treatment, cell lysates were collected to test the CCV gene expression by the RT-qPCR, and the percentage inhibition of CCV infection by individual compound was calculated. According to the percentage inhibition results, we further detected the antiviral activity of kaempferol at maximum safe concentration by viral cytopathic effects (CPE) and western blot analysis. […]\nFor the western blot assay, firstly, cells were lysed with cell lysis buffer (Beyotime, China), and then the concentrations of protein samples collected from cell lysates protein were determined using the Enhanced BCA Protein Assay Kit (Beyotime, China). […] Finally, the signals were detected using an ECL kit (Beyotime, China) according to the manufacturer’s instructions."}}}
{"compound": "O=c1c(O)c(-c2ccc(O)cc2)oc2cc(O)cc(O)c12", "note": "[Kaempferol]", "values": [{"measurement": "inhibition at 10 µg/mL", "setting": "[1]", "result": "~100", "unit": "%"}, {"measurement": "viral protein (CCV ORF 39, ORF 59) level, western blot", "setting": "[2]; kaempferol 10 μg/mL to 15 μg/mL, 24 and 36 h", "result": "nearly undetectable"}, {"measurement": "expression of viral proteins (CCV ORF 39, ORF 59), western blot", "setting": "[2]; maximum safe concentration (47.53 μg/mL), 36 h post-infection", "result": "suppressed the expression of viral proteins"}]}
